Consider 68 molecules from US20050234076A1, “Triazolopyrimidines” (priority 2002, published 2005).

By chromatographic logP is commonly meant a lipophilicity value derived from retention on a column. A higher chromatographic logP goes with a more lipophilic compound.

The test system of one data set is Botrytis cinerea. Description: Botrytis Test (bean)/protective. It counts as in vivo. The following applies: 48 h, bean plants, protective spray, evaluation 2 days after inoculation, 100% = no infection, read-out: Efficacy in %. As to the method: Botrytis Test (bean)/protective
Solvents: 24.5 parts by weight of acetone • 24.5 parts by of dimethylacetamide
Emulsifier: 1.0 part by weight of alkylaryl polyglycol ether
To produce a suitable preparation of active compound, 1 part by weight of active compound is mixed with the stated amounts of solvent and emulsifier, and the concentrate is diluted with water to the desired concentration.
To test for protective activity, young plants are sprayed with the preparation of active compound at the stated application rate. After the spray coating has dried on, 2 small pieces of agar colonized by Botrytis cinerea are placed onto each leaf. The inoculated plants are placed in a dark chamber at about 20° C. and 100% relative atmospheric humidity.
2 days after the inoculation the size of the infected areas on the leaves is evaluated. 0% means an efficacy which corresponds to that of the control, whereas an efficacy of 100% means that no infection is observed.

The next data set relates to Venturia inaequalis. In words: Venturia Test (apple)/protective. The note with it: 240 h, apple plants, protective spray, evaluation 10 days after inoculation, 100% = no infection, read-out: Efficacy in %. It counts as in vivo. As for the experimental part:
Venturia Test (apple)/protective Solvents: 24.5 parts by weight of acetone • 24.5 parts by weight of dimethylacetamide Emulsifier: 1.0 parts by weight alkylaryl polyglycol ether To produce a suitable preparation of active compound, 1 part by weight of active compound is mixed with the stated amounts of solvent and emulsifier, and the concentrate is diluted with water to the desired concentration. To test for protective activity, young plants are sprayed with the preparation of active compound at the stated application rate. […] The plants are then placed in a greenhouse at about 21° C. and a relative atmospheric humidity of about 90%.

Turning to `Fc1cc(F)c(-c2c(Cl)nc3ncnn3c2N2CC=CCO2)c(F)c1`, in the data set with Botrytis cinerea, the pest or weed control at 500 g/ha was 100%.

Regarding `CC1CCON1c1c(-c2c(F)cc(F)cc2F)c(Cl)nc2ncnn12` (centres unmarked) [Example 1, 5-chloro-6-(2,4,6-trifluorophenyl)-7-(3-methyl-2-isoxazolidinyl)[1,2,4]triazolo[1,5-a]pyrimidine], the chromatographic logP in the data set “physchem” worked out at 2.76.

For the molecule `Fc1cc(F)c(-c2c(Cl)nc3ncnn3c2N2Cc3ccccc3CO2)c(F)c1` [Example 5], the chromatographic logP in “physchem” worked out at 3.53.

Turning to `Fc1cc(F)c(-c2c(Cl)nc3ncnn3c2N2CCCCO2)c(F)c1` [Example 6], in the data set “physchem”, the chromatographic logP was 2.92.

In “physchem”, `Fc1ccc(-c2c(Cl)nc3ncnn3c2N2CCCCO2)c(Cl)c1` [Example 8] registered a chromatographic logP of 3.11.

As for `Fc1ccc(-c2c(Cl)nc3ncnn3c2N2CCCCO2)c(F)c1` [Example 9], in the data set “physchem”, the chromatographic logP came to 2.84.

`Fc1cc(F)c(-c2c(Cl)nc3ncnn3c2N2CCCCN2)c(F)c1` [Example 10] displayed a chromatographic logP in “physchem” of 2.68.

As for `Fc1cc(F)c(-c2c(Cl)nc3ncnn3c2N2CCC=N2)c(F)c1` [Example 11], in “physchem”, the chromatographic logP was 2.34.

The molecule `Fc1cccc(Cl)c1-c1c(Cl)nc2ncnn2c1N1CCCCN1` [Example 12] yielded a chromatographic logP in the data set “physchem” of 2.67.

As to `Fc1cc(F)c(-c2c(Cl)nc3ncnn3c2N2OC3CCC2C3)c(F)c1` (centres unmarked) [Example 18], the chromatographic logP in “physchem” was determined as 2.75.

Molecule `Clc1cccc(Cl)c1-c1c(Cl)nc2ncnn2c1N1CCCCN1` [Example 21] registered a chromatographic logP in the data set “physchem” of 2.88.

For the molecule `Fc1cc(F)c(-c2c(Br)nc3ncnn3c2N2CCCCN2)c(F)c1` [Example 24], in the data set “physchem”, the chromatographic logP was 2.73.

Turning to `Fc1cc(F)c(-c2c(Cl)nc3ncnn3c2N2NC3CCC2C3)c(F)c1` (centres unmarked) [Example 27], the chromatographic logP in “physchem” came to 2.65.

In turn, `Fc1cccc(Cl)c1-c1c(Cl)nc2ncnn2c1N1NC2CCC1C2` (centres unmarked) [Example 28] had a chromatographic logP in the data set “physchem” of 2.59.

In turn, `Fc1cccc(F)c1-c1c(Cl)nc2ncnn2c1N1CCCCO1` [Example 31] displayed a chromatographic logP in the data set “physchem” of 2.68.

As for `Clc1ccccc1-c1c(Cl)nc2ncnn2c1N1OC2CCC1C2` (centres unmarked) [Example 33], the chromatographic logP in the data set “physchem” came to 2.69.

`Fc1cccc(Cl)c1-c1c(Cl)nc2ncnn2c1N1OC2CCC1C2` (centres unmarked) [Example 34] had a chromatographic logP in “physchem” of 2.74.

As for `CC1CCCON1c1c(-c2c(F)cc(F)cc2F)c(Cl)nc2ncnn12` (centres unmarked) [Example 35], the chromatographic logP in “physchem” stood at 3.23.

`CC1CCCON1c1c(-c2ccccc2Cl)c(Cl)nc2ncnn12` (centres unmarked) [Example 41] returned a chromatographic logP in the data set “physchem” of 3.17.

The molecule `CC1CCON1c1c(-c2c(F)cccc2Cl)c(Cl)nc2ncnn12` (centres unmarked) [Example 42] displayed a chromatographic logP in “physchem” of 2.74.

With `Fc1ccc(-c2c(Cl)nc3ncnn3c2N2OC3CCC2C3)c(F)c1` (centres unmarked) [Example 43], the chromatographic logP in the data set “physchem” is 2.67.

`Fc1ccc(-c2c(Cl)nc3ncnn3c2N2OC3CCC2C3)c(Cl)c1` (centres unmarked) [Example 44] gave a chromatographic logP in “physchem” of 2.89.

As to `Fc1cc(F)c(-c2c(Cl)nc3ncnn3c2N2OC3CCC2C3)c(C(F)(F)F)c1` (centres unmarked) [Example 46], the chromatographic logP in the data set “physchem” is 3.1.

Molecule `CC1C=CCN(c2c(-c3c(F)cc(F)cc3F)c(Cl)nc3ncnn23)O1` (centres unmarked) [Example 58] had a chromatographic logP in the data set “physchem” of 3.12.

For the molecule `Fc1cccc(F)c1-c1c(Cl)nc2ncnn2c1N1CCCCN1` [Example 63], the chromatographic logP in the data set “physchem” came out at 2.47.

In the case of `Fc1cc(F)c(-c2c(Cl)nc3ncnn3c2N2CCCCN2)c(C(F)(F)F)c1` [Example 67], the chromatographic logP in “physchem” turned out to be 3.06.

`Fc1cc(C(F)(F)F)cc(F)c1-c1c(Cl)nc2ncnn2c1N1CCCCN1` [Example 68] gave a chromatographic logP in “physchem” of 3.26.

In the data set “physchem”, `Clc1ccc(-c2c(Cl)nc3ncnn3c2N2CCCCN2)c(Cl)c1` [Example 69] returned a chromatographic logP of 3.22.

As to `CCOC(=O)N1OCCC1C` (centres unmarked) [N-ethoxycarbonyl-3-methylisoxazolidine], in “physchem”, the chromatographic logP turned out to be 1.22.

On to `Fc1cc(F)c(-c2c(Cl)nc3ncnn3c2N2Cc3ccccc3CO2)c(F)c1` [drawing 45], for which the pest or weed control at 100 g/ha in the data set with Venturia inaequalis is 100%.

For `Fc1cc(F)c(-c2c(Cl)nc3ncnn3c2N2CCCCO2)c(F)c1` [drawing 46], the pest or weed control at 100 g/ha with Venturia inaequalis is 100%.

`Fc1ccc(-c2c(Cl)nc3ncnn3c2N2CCCCO2)c(Cl)c1` [drawing 47]: the pest or weed control at 100 g/ha in the data set on Venturia inaequalis was 100%.

As to `Fc1ccc(-c2c(Cl)nc3ncnn3c2N2CCCCO2)c(F)c1` [drawing 48], the pest or weed control at 100 g/ha with Venturia inaequalis was determined as 96%.

With `Fc1cccc(Cl)c1-c1c(Cl)nc2ncnn2c1N1CCCCN1` [drawing 49], in the data set with Venturia inaequalis, the pest or weed control at 100 g/ha was 100%.

For `CC1C=CCN(c2c(-c3c(F)cc(F)cc3F)c(Cl)nc3ncnn23)O1` (centres unmarked) [drawing 50], in the data set on Venturia inaequalis, the pest or weed control at 100 g/ha was 100%.

Take `Fc1cc(F)c(-c2c(Cl)nc3ncnn3c2N2OC3CCC2C3)c(F)c1` (centres unmarked) [drawing 51]: in the data set on Venturia inaequalis, the pest or weed control at 100 g/ha amounted to 100%.

Consider `Fc1cc(F)c(-c2c(Cl)nc3ncnn3c2N2OC3CCC2C3)c(C(F)(F)F)c1` (centres unmarked) [drawing 53], for which, in the data set on Venturia inaequalis, the pest or weed control at 100 g/ha amounted to 100%.

As for `CC1CCCON1c1c(-c2c(F)cc(F)cc2F)c(Cl)nc2ncnn12` (centres unmarked) [drawing 54], the pest or weed control at 100 g/ha in the data set on Venturia inaequalis came out at 100%.

In the case of `CC1CCON1c1c(-c2c(F)cc(F)cc2F)c(Cl)nc2ncnn12` (centres unmarked) [drawing 55], the pest or weed control at 100 g/ha in the data set with Venturia inaequalis was 100%.

Turning to `Clc1ccccc1-c1c(Cl)nc2ncnn2c1N1OC2CCC1C2` (centres unmarked) [drawing 56], the pest or weed control at 100 g/ha with Venturia inaequalis is 99%.

Turning to `Fc1cccc(F)c1-c1c(Cl)nc2ncnn2c1N1CCCCO1` [drawing 57], the pest or weed control at 100 g/ha in the data set on Venturia inaequalis is 100%.

Turning to `Fc1cc(F)c(-c2c(Cl)nc3ncnn3c2N2Cc3ccccc3CO2)c(F)c1` [drawing 72], in the data set with Botrytis cinerea, the pest or weed control at 500 g/ha was found to be 100%.

On to `Fc1cc(F)c(-c2c(Cl)nc3ncnn3c2N2CCCCO2)c(F)c1` [drawing 73], for which the pest or weed control at 500 g/ha with Botrytis cinerea came out at 100%.

With `Fc1ccc(-c2c(Cl)nc3ncnn3c2N2CCCCO2)c(Cl)c1` [drawing 74], the pest or weed control at 500 g/ha in the data set on Botrytis cinerea turned out to be 100%.

As for `Fc1ccc(-c2c(Cl)nc3ncnn3c2N2CCCCO2)c(F)c1` [drawing 75], the pest or weed control at 500 g/ha in the data set with Botrytis cinerea was found to be 100%.

Take `Fc1cccc(Cl)c1-c1c(Cl)nc2ncnn2c1N1CCCCN1` [drawing 76]: the pest or weed control at 500 g/ha in the data set on Botrytis cinerea came out at 100%.

On to `Fc1cc(F)c(-c2c(Cl)nc3ncnn3c2N2CCCCN2)c(F)c1` [drawing 77], for which, in the data set on Botrytis cinerea, the pest or weed control at 500 g/ha came to 100%.

As for `Fc1cc(F)c(-c2c(Cl)nc3ncnn3c2N2OC3CCC2C3)c(C(F)(F)F)c1` (centres unmarked) [drawing 78], the pest or weed control at 500 g/ha in the data set on Botrytis cinerea came out at 100%.

Take `CC1C=CCN(c2c(-c3c(F)cc(F)cc3F)c(Cl)nc3ncnn23)O1` (centres unmarked) [drawing 80]: in the data set with Botrytis cinerea, the pest or weed control at 500 g/ha came out at 93%.

As to `Fc1cc(F)c(-c2c(Cl)nc3ncnn3c2N2OC3CCC2C3)c(F)c1` (centres unmarked) [drawing 81], the pest or weed control at 500 g/ha in the data set with Botrytis cinerea turned out to be 98%.

With `CC1CCCON1c1c(-c2c(F)cc(F)cc2F)c(Cl)nc2ncnn12` (centres unmarked) [drawing 82], in the data set with Botrytis cinerea, the pest or weed control at 500 g/ha was determined as 100%.

As for `CC1CCON1c1c(-c2c(F)cc(F)cc2F)c(Cl)nc2ncnn12` (centres unmarked) [drawing 83], the pest or weed control at 500 g/ha in the data set on Botrytis cinerea is 100%.

Consider `Clc1ccccc1-c1c(Cl)nc2ncnn2c1N1OC2CCC1C2` (centres unmarked) [drawing 84], for which the pest or weed control at 500 g/ha in the data set with Botrytis cinerea amounted to 93%.

On to `Fc1cccc(F)c1-c1c(Cl)nc2ncnn2c1N1CCCCO1` [drawing 85], for which, in the data set with Botrytis cinerea, the pest or weed control at 500 g/ha came out at 100%.

In the case of `Fc1cccc(Cl)c1-c1c(Cl)nc2ncnn2c1N1OC2CCC1C2` (centres unmarked) [drawing 86], in the data set with Botrytis cinerea, the pest or weed control at 500 g/ha turned out to be 100%.

With `CC1CCON1c1c(-c2c(F)cccc2Cl)c(Cl)nc2ncnn12` (centres unmarked) [drawing 87], the pest or weed control at 500 g/ha with Botrytis cinerea worked out at 100%.

In the case of `Fc1ccc(-c2c(Cl)nc3ncnn3c2N2OC3CCC2C3)c(F)c1` (centres unmarked) [drawing 88], the pest or weed control at 500 g/ha in the data set with Botrytis cinerea amounted to 99%.

In the case of `CC1CCCON1c1c(-c2ccccc2Cl)c(Cl)nc2ncnn12` (centres unmarked) [drawing 89], the pest or weed control at 500 g/ha in the data set on Botrytis cinerea was determined as 99%.

`Fc1ccc(-c2c(Cl)nc3ncnn3c2N2OC3CCC2C3)c(Cl)c1` (centres unmarked) [drawing 90]: the pest or weed control at 500 g/ha in the data set on Botrytis cinerea was 100%.

Turning to `Fc1cc(F)c(-c2c(Cl)nc3ncnn3c2N2CCC=N2)c(F)c1` [drawing 91], the pest or weed control at 500 g/ha in the data set with Botrytis cinerea was determined as 100%.

`Clc1cccc(Cl)c1-c1c(Cl)nc2ncnn2c1N1CCCCN1` [drawing 92]: in the data set with Botrytis cinerea, the pest or weed control at 500 g/ha stood at 99%.

Consider `Fc1cc(F)c(-c2c(Cl)nc3ncnn3c2N2NC3CCC2C3)c(F)c1` (centres unmarked) [drawing 93], for which the pest or weed control at 500 g/ha in the data set on Botrytis cinerea is 96%.

`Fc1cccc(Cl)c1-c1c(Cl)nc2ncnn2c1N1NC2CCC1C2` (centres unmarked) [drawing 94]: in the data set with Botrytis cinerea, the pest or weed control at 500 g/ha worked out at 100%.

Consider `Fc1cccc(F)c1-c1c(Cl)nc2ncnn2c1N1CCCCN1` [drawing 95], for which, in the data set on Botrytis cinerea, the pest or weed control at 500 g/ha came to 95%.

For the molecule `Fc1cc(F)c(-c2c(Cl)nc3ncnn3c2N2CCCCN2)c(C(F)(F)F)c1` [drawing 96], in the data set with Botrytis cinerea, the pest or weed control at 500 g/ha amounted to 100%.

On to `Clc1ccc(-c2c(Cl)nc3ncnn3c2N2CCCCN2)c(Cl)c1` [drawing 97], for which the pest or weed control at 500 g/ha with Botrytis cinerea was 95%.

As for `Fc1cc(C(F)(F)F)cc(F)c1-c1c(Cl)nc2ncnn2c1N1CCCCN1` [drawing 98], in the data set on Botrytis cinerea, the pest or weed control at 500 g/ha is 95%.

For `Fc1cc(F)c(-c2c(Br)nc3ncnn3c2N2CCCCN2)c(F)c1` [drawing 99], the pest or weed control at 500 g/ha in the data set with Botrytis cinerea was 100%.
